Results on eight compounds are retold here after patent US11535629B2, “Dioxoloisoquinolinone derivatives and use thereof” (HANMI PHARMACEUTICAL CO., LTD., priority 2020, dated 2022).

By GI50 is commonly meant the concentration giving 50% growth inhibition.

The test system of the assay is KARPAS-422 cells. Briefly: Cell growth inhibition test (CTG method). It counts as cell-based. The conditions noted are these: KARPAS-422 (EZH2^Y641N mutant), culturing for 7 days, read-out: Cell growth inhibitory activity (GI50, nM) KARPAS-422 (EZH2^Y641N mutant). The protocol: The cultured cell strain was prepared at 1.8×10^4 cells/400 μL and placed in a 48-well plate.

The mark [1] stands for this setting: Homo sapiens, KARPAS-422, 168 h.

Read-outs that look alike come from different tables or passages of the source. Where only a bound is given, the exact number is not on record here.

For `Cc1cc(C)c(CN2CCc3c(Cl)c4c(c(C)c3C2=O)OC(C)(C23CCC(N(C)C)(CC2)CC3)O4)c(=O)[nH]1` (single isomer, unassigned) [Compound 3, 9-chloro-6-((4,6-dimethyl-2-oxo-1,2-dihydropyridin-3-yl)methyl)-2-(4-(dimethylamino)bicyclo[2.2.2]octan-1-yl)-2,4-dimethyl-7,8-dihydro-[1,3]dioxolo[4,5-g]isoquinolin-5(6H)-one], the GI50 lay within 100 to 1000 nM.
Still for that read-out and setting: as for `COc1cc(C)[nH]c(=O)c1CN1CCc2c(Cl)c3c(c(C)c2C1=O)OC(C)(C12CCC(N(C)C)(CC1)CC2)O3` (single isomer, unassigned) [Compound 6, 9-chloro-2-(4-(dimethylamino)bicyclo[2.2.2]octan-1-yl)-6-((4-methoxy-6-methyl-2-oxo-1,2-dihydropyridin-3-yl)methyl)-2,4-dimethyl-7,8-dihydro[1,3]dioxolo[4,5-g]isoquinolin-5(6H)-one], the figure is over 1000 nM; as for `CSc1cc(C)[nH]c(=O)c1CN1CCc2c(Cl)c3c(c(C)c2C1=O)OC(C)(C12CCC(N(C)C)(CC1)CC2)O3` (single isomer, unassigned) [Compound 9, 9-chloro-2-(4-(dimethylamino)bicyclo[2.2.2]octan-1-yl)-2,4-dimethyl-6-((6-methyl-4-(methylthio)-2-oxo-1,2-dihydropyridin-3-yl)methyl)-7,8-dihydro[1,3]dioxolo[4,5-g]isoquinolin-5(6H)-one], 100 to 1000 nM; as for `Cc1cc(C)c(CN2CCc3c(Br)c4c(c(C)c3C2=O)OC(C)(C23CCC(N(C)C)(CC2)CC3)O4)c(=O)[nH]1` (single isomer, unassigned) [Compound 12, 9-bromo-6-((4,6-dimethyl-2-oxo-1,2-dihydropyridin-3-yl)methyl)-2-(4-(dimethylamino)bicyclo[2.2.2]octan-1-yl)-2,4-dimethyl-7,8-dihydro-[1,3]dioxolo[4,5-g]isoquinolin-5(6H)-one], over 1000 nM.
`Cc1cc(C)c(CN2CCc3c(Cl)c4c(c(C)c3C2=O)OC(C)(C23CCC(N(C)C)(CC2)CC3)O4)c(=O)[nH]1` (centres unmarked) [Compound 1, 9-chloro-6-((4,6-dimethyl-2-oxo-1,2-dihydropyridin-3-yl)methyl)-2-(4-(dimethylamino)bicyclo[2.2.2]octan-1-yl)-2,4-dimethyl-7,8-dihydro-[1,3]dioxolo[4,5-g]isoquinolin-5(6H)-one]: the 50% growth inhibitory concentration (GI50) under setting [1] lay in the range of 10 to 100 nM.
For the compound `Cc1cc(C)c(CN2CCc3c(Br)c4c(c(C)c3C2=O)OC(C)(C23CCC(N(C)C)(CC2)CC3)O4)c(=O)[nH]1` (centres unmarked) [Compound 10, 9-bromo-6-((4,6-dimethyl-2-oxo-1,2-dihydropyridin-3-yl)methyl)-2-(4-(dimethylamino)bicyclo[2.2.2]octan-1-yl)-2,4-dimethyl-7,8-dihydro-[1,3]dioxolo[4,5-g]isoquinolin-5(6H)-one], under setting [1], the concentration for 50% growth inhibition (GI50) fell in the range of 4.1 to 55 nM.
Still for that read-out and setting: the same measure for `Cc1cc(C)c(CN2CCc3c(c(C)c4c(c3C3CC3)OC(C)(C35CCC(N(C)C)(CC3)CC5)O4)C2=O)c(=O)[nH]1` (centres unmarked) [Compound 13, 9-cyclopropyl-6-((4,6-dimethyl-2-oxo-1,2-dihydropyridin-3-yl)methyl)-2-(4-(dimethylamino)bicyclo[2.2.2]octan-1-yl)-2,4-dimethyl-7,8-dihydro-[1,3]dioxolo[4,5-g]isoquinolin-5(6H)-one]: 30 nM; for `Cc1cc(C)c(CN2CCc3cc4c(c(C)c3C2=O)OC(C)(C23CCC(N(C)C)(CC2)CC3)O4)c(=O)[nH]1` (centres unmarked) [Compound 14, 6-((4,6-dimethyl-2-oxo-1,2-dihydropyridin-3-yl)methyl)-2-(4-(dimethylamino)bicyclo[2.2.2]octan-1-yl)-2,4-dimethyl-7,8-dihydro-[1,3]dioxolo[4,5-g]isoquinolin-5(6H)-one]: 45 nM.
